Measured values: patent publication US8377884B2, “Variants of C-type natriuretic peptides” (Biomarin Pharmaceutical Inc., priority 2007, dated 2013)
Numbered stars: 1 amine (or outer) side, 2 acyl side, 3 side chain; on linkers, the order of the positions; unused ones are H or OH. Bridge positions count the residues as written; N and C are the ends. Square brackets hold non-standard residues; d marks the D form. Ends that are not written are not given here. Peptide text beside a SMILES is read from it. PEG2K = polydispersed PEG of number-average molecular weight 2 kDa; X1 = O=C(C(CN[*:1])c1ccccc1)[*:2]

Experiments:
Recombinant human NEP = Recombinant human NEP (Homo sapiens, UniProt P08473); experiment: in vitro; conditions: for NEP Cleavage (t1/2, min): pH 7
Sequence of Recombinant human NEP (P08473 whole entry): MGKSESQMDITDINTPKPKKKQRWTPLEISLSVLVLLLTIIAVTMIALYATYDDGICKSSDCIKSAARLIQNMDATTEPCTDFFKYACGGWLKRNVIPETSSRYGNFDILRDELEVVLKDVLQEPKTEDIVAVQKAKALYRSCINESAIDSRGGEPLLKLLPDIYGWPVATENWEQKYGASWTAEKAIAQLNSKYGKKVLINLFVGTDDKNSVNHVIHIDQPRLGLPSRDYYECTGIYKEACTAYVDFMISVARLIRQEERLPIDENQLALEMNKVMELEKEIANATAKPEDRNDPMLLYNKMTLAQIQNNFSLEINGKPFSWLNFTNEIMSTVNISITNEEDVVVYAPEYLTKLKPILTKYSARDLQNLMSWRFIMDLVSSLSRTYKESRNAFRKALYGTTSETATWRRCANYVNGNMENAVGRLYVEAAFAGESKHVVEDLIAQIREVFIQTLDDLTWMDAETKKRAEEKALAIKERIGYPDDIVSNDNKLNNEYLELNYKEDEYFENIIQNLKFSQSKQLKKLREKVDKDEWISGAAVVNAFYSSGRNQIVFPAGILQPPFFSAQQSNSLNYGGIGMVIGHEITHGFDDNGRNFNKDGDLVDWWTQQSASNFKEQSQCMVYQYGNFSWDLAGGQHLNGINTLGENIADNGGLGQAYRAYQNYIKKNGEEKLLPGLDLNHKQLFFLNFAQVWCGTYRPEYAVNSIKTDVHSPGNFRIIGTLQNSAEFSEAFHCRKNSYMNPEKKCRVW
How it was run: (§1)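 Recombinant human NEP (1 ug/mL final) incubated with 100 uM CNP variant in 0.1 M Tris, pH 7, at 37° C for various times, then quenched with EDTA (10 mM final) and heat. Samples reduced and analysed by HPLC and mass spectrometry. Half-life derived from loss of intact variant over time.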

NPR-B = molecular target: T1, NPR-B (Mus musculus, UniProt Q6VVW5); experiment: Stimulation of cGMP production in NIH3T3 cells; type: cell-based, Murine; conditions: NIH3T3 cells, normalized to cell number and cGMP production with 1 uM wtCNP22; for cGMP Response rel. to 1 uM CNP22, 10 nM / cGMP response relative to 1 uM CNP22 (%) at 0.01 µM: 10 nM natriuretic peptide; for cGMP Response rel. to 1 uM CNP22, 1 uM / cGMP response relative to 1 uM CNP22 (%) at 1 µM: 1 uM natriuretic peptide; for cGMP response relative to 1 uM CNP22 (%) at 0.01 µM: read-out: cGMP Response rel. to 1 uM CNP22, 10 nM; for cGMP response relative to 1 uM CNP22 (%) at 1 µM: read-out: cGMP Response rel. to 1 uM CNP22, 1 uM
T1 construct: Murine NIH3T3 cells express endogenously the CNP signaling receptor, NPR-B; endogenous in cells; host or cells: NIH3T3 (murine fibroblasts)
T1 sequence (Q6VVW5 17-1047): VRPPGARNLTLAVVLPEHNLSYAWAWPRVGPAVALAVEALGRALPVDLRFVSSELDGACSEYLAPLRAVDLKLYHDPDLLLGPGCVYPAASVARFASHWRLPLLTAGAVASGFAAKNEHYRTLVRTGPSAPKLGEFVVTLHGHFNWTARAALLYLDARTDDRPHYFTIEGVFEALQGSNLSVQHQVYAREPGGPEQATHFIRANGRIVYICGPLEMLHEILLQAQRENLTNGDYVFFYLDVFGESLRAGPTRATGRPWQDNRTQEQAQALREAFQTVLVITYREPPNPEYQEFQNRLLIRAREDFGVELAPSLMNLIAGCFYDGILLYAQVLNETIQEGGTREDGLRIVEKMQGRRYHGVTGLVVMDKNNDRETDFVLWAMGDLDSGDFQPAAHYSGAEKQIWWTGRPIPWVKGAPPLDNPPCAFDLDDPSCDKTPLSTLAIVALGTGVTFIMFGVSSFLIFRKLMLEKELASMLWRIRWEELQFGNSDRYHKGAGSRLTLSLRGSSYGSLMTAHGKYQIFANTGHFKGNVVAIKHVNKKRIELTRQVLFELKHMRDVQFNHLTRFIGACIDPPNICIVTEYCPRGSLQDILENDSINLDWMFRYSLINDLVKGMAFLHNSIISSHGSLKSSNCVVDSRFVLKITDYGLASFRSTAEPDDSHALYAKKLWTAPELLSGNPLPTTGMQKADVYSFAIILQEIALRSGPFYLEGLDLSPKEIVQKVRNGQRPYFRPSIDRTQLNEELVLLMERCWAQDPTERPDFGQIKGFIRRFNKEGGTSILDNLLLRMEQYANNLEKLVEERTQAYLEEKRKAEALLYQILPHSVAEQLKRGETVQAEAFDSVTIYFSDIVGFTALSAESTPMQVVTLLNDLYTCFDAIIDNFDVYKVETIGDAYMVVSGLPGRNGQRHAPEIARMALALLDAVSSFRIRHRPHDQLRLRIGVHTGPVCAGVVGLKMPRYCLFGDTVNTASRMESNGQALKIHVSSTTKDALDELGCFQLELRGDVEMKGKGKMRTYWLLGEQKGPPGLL

[1] = molecular target: neutral endopeptidase (NEP) (Homo sapiens, UniProt P08473); experiment: in vitro; conditions: human, pH 7
Sequence of neutral endopeptidase (NEP) (P08473 whole entry): as the sequence (P08473 whole entry) above
How it was run: as §1

PEG5K-CNP22: CNP22 conjugated at the N-terminus to polydispersed PEG5K
resistance to NEP cleavage/degradation (in words) (Recombinant human NEP): resistant to NEP degradation over the assay period of 160 minutes
NEP Cleavage (t1/2, min) (Recombinant human NEP): >>160 min
cGMP Response rel. to 1 uM CNP22, 10 nM (NPR-B): 8 ± 1
cGMP Response rel. to 1 uM CNP22, 1 uM (NPR-B): 20 ± 7

PEG2K-CNP22: CNP22 conjugated at the N-terminus to polydispersed PEG2K
NEP Cleavage (t1/2, min) (Recombinant human NEP): >>160 min
cGMP Response rel. to 1 uM CNP22, 10 nM (NPR-B): 6 ± 2
cGMP Response rel. to 1 uM CNP22, 1 uM (NPR-B): 32 ± 4

CC[C@H](C)[C@@H]1NC(=O)[C@H](CCCNC(=N)N)NC(=O)[C@H](CC(=O)O)NC(=O)[C@H](CC(C)C)NC(=O)[C@H](CCCCN)NC(=O)[C@H](CC(C)C)NC(=O)CNC(=O)[C@H](Cc2ccccc2)NC(=O)[C@@H](NC(=O)CNC(=O)[C@H](CCCCN)NC(=O)[C@H](CO)NC(=O)[C@H](CC(C)C)NC(=O)CNC(=O)[C@H](CCC(N)=O)NC(=O)[C@H](CO)NC(=O)[C@H](CC(C)C)NC(=O)[C@H](CCCNC(=N)N)NC(=O)[C@H](C)NC(=O)[C@@H](NC(=O)[C@H](C)NC(=O)[C@H](Cc2c[nH]c3ccccc23)NC(=O)[C@H](C)NC(=O)[C@H](CCCCN)NC(=O)[C@H](Cc2ccccc2)NC(=O)[C@H](C)NC(=O)[C@H](CCCNC(=N)N)NC(=O)[C@H](CCC(=O)O)NC(=O)CN)C(C)C)CSSC[C@@H](C(=O)O)NC(=O)CNC(=O)[C@H](CC(C)C)NC(=O)CNC(=O)[C@H](CO)NC(=O)[C@H](CCSC)NC(=O)[C@H](CO)NC(=O)CNC1=O [CE] (H-GERAFKAWAVARLSQGLSKGCFGLKLDRIGSMSGLGC-OH; disulfide 21-37 (inferred); N-terminus and C-terminus assumed)
resistance to NEP cleavage/degradation (in words) (Recombinant human NEP): much more resistant to NEP cleavage than CNP22
cGMP response relative to 1 uM CNP22 (%) at 0.01 µM (NPR-B): 15%
cGMP response relative to 1 uM CNP22 (%) at 1 µM (NPR-B): 87%

CC[C@H](C)[C@@H]1NC(=O)[C@H](CCCNC(=N)N)NC(=O)[C@H](CC(=O)O)NC(=O)[C@H](CC(C)C)NC(=O)[C@H](CCCCN)NC(=O)[C@H](CC(C)C)NC(=O)CNC(=O)[C@H](Cc2ccccc2)NC[C@@H](NC(=O)CNC(=O)[C@H](CCCCN)NC(=O)[C@H](CO)NC(=O)[C@H](CC(C)C)NC(=O)CN)CSSC[C@@H](C(=O)O)NC(=O)CNC(=O)[C@H](CC(C)C)NC(=O)CNC(=O)[C@H](CO)NC(=O)[C@H](CCSC)NC(=O)[C@H](CO)NC(=O)CNC1=O [A]
resistance to cleavage at the Cys6-Phe7 bond relative to wtCNP22 (Recombinant human NEP; data not shown): resistance or improved resistance

DLRVDTKSRAAWARLLQEHPNARKYKGANKKGLSKGCFGLKLDRIGSMSGLGC (disulfide 37-53 (inferred)) [Analog BM]
resistance to NEP cleavage/degradation (in words) (Recombinant human NEP): resistant to NEP degradation

CC[C@H](C)[C@@H]1NC(=O)[C@H](CCCNC(=N)N)NC(=O)[C@H](CC(=O)O)NC(=O)[C@H](CC(C)C)NC(=O)[C@H](CCCCN)NC(=O)[C@H](CC(C)C)NC(=O)CNC(=O)[C@H](Cc2ccccc2)NC(=O)[C@@H](NC(=O)CNC(=O)[C@H](CCCCN)NC(=O)[C@H](CO)NC(=O)[C@H](CC(C)C)NC(=O)CNC(=O)[C@H](CCCCN)NC(=O)[C@H](CCCCN)NC(=O)[C@H](CC(N)=O)NC(=O)[C@H](C)NC(=O)CNC(=O)[C@H](CCCCN)NC(=O)[C@H](Cc2ccc(O)cc2)NC(=O)[C@H](CCCCN)NC(=O)[C@H](CCCNC(=N)N)NC(=O)[C@H](C)NC(=O)[C@H](CC(N)=O)NC(=O)[C@@H]2CCCN2C(=O)[C@H](Cc2c[nH]cn2)NC(=O)[C@H](CCC(=O)O)NC(=O)[C@@H](N)CCC(N)=O)CSSC[C@@H](C(=O)O)NC(=O)CNC(=O)[C@H](CC(C)C)NC(=O)CNC(=O)[C@H](CO)NC(=O)[C@H](CCSC)NC(=O)[C@H](CO)NC(=O)CNC1=O [Analog BL]
resistance to NEP cleavage/degradation (in words) (Recombinant human NEP): resistant to NEP degradation

CC[C@H](C)[C@@H]1NC(=O)[C@H](CCCNC(=N)N)NC(=O)[C@H](CC(=O)O)NC(=O)[C@H](CC(C)C)NC(=O)[C@H](CCCCN)NC(=O)[C@H](CC(C)C)NC(=O)CNC(=O)C(c2ccccc2)CNC(=O)[C@@H](NC(=O)CNC(=O)[C@H](CCCCN)NC(=O)[C@H](CO)NC(=O)[C@H](CC(C)C)NC(=O)CN)CSSC[C@@H](C(=O)O)NC(=O)CNC(=O)[C@H](CC(C)C)NC(=O)CNC(=O)[C@H](CO)NC(=O)[C@H](CCSC)NC(=O)[C@H](CO)NC(=O)CNC1=O (stereo partly shown) [H] (H-GLSKGC[X1]GLKLDRIGSMSGLGC-OH; disulfide 6-22; N-terminus and C-terminus assumed)
resistance to cleavage at the Cys6-Phe7 bond relative to wtCNP22 (Recombinant human NEP): resistance or improved resistance

PEG2K-CNP22(K4G): CNP22 having a K4G substitution, N-terminal PEGylated with PEG2K (PEG2K-GLSGGCFGLKLDRIGSMSGLGC; disulfide 6-22 (inferred); UniProt P23582 105-126, looked up, variant K4G)
resistance to NEP cleavage/degradation (in words) (Recombinant human NEP): only slightly more resistant to NEP cleavage than CNP22

CC[C@H](C)[C@@H]1NC(=O)[C@H](CCCNC(=N)N)NC(=O)[C@H](CC(=O)O)NC(=O)[C@H](CC(C)C)NC(=O)[C@H](CCCCN)NC(=O)[C@H](CC(C)C)NC(=O)CNC(=O)[C@H](Cc2ccccc2)NC(=O)[C@@H](NC(=O)CNC(=O)[C@H](CCCNC(=N)N)NC(=O)[C@H](CO)NC(=O)[C@H](CC(C)C)NC(=O)CNC(=O)[C@H](CCCNC(=N)N)NC(=O)[C@H](CCCNC(=N)N)NC(=O)[C@H](CC(N)=O)NC(=O)[C@H](C)NC(=O)CN)CSSC[C@@H](C(=O)O)NC(=O)CNC(=O)[C@H](CC(C)C)NC(=O)CNC(=O)[C@H](CO)NC(=O)[C@H](CCSC)NC(=O)[C@H](CO)NC(=O)CNC1=O [Analog AY] (H-GANRRGLSRGCFGLKLDRIGSMSGLGC-OH; disulfide 11-27 (inferred); N-terminus and C-terminus assumed)
resistance to NEP cleavage/degradation (in words) (Recombinant human NEP): same lability to NEP hydrolysis as CNP22

CC[C@H](C)[C@@H]1NC(=O)[C@H](CCCNC(=N)N)NC(=O)[C@H](CC(=O)O)NC(=O)[C@H](CC(C)C)NC(=O)[C@H](CCCCN)NC(=O)[C@H](CC(C)C)NC(=O)CNC(=O)[C@H](Cc2ccccc2)NC(=O)[C@@H](NC(=O)CNC(=O)[C@H](CCCNC(=N)N)NC(=O)[C@H](CO)NC(=O)[C@H](CC(C)C)NC(=O)CNC(=O)[C@H](CCCNC(=N)N)NC(=O)[C@H](CCCNC(=N)N)NC(=O)[C@H](CC(N)=O)NC(=O)[C@H](C)NC(=O)CN)CSSC[C@@H](C(=O)O)NC(=O)CNC(=O)[C@H](CC(C)C)NC(=O)CNC(=O)[C@H](CO)NC(=O)[C@H](CCSC)NC(=O)[C@H](CO)NC(=O)CNC1=O [AY] (H-GANRRGLSRGCFGLKLDRIGSMSGLGC-OH; disulfide 11-27 (inferred); N-terminus and C-terminus assumed)
half-life at 100 uM [1]: 65 min
cGMP response relative to 1 uM CNP22 (%) at 0.01 µM (NPR-B): 59 ± 9%
cGMP response relative to 1 uM CNP22 (%) at 1 µM (NPR-B): 105 ± 20%

DLRVDTKSRAAWARLLQEHPNARKYKGANKKGLSKGCFGLKLDRIGSMSGLGC (disulfide 37-53) [BM]
half-life at 100 uM [1]: > 160 min
cGMP response relative to 1 uM CNP22 (%) at 0.01 µM (NPR-B): 61%
cGMP response relative to 1 uM CNP22 (%) at 1 µM (NPR-B): 101%
